{"source": "paper PMC7083565", "about": "“In vitro metabolism, reaction phenotyping, enzyme kinetics, CYP inhibition and induction potential of ataluren” (Pharmacology Research & Perspectives, 2020)", "target": "T1, UGT1A9 (Homo sapiens, UniProt O60656)", "T1 construct": "purchased BD Biosciences; host or cells: baculovirus-infected insect cells", "T1 sequence (O60656 26-530)": "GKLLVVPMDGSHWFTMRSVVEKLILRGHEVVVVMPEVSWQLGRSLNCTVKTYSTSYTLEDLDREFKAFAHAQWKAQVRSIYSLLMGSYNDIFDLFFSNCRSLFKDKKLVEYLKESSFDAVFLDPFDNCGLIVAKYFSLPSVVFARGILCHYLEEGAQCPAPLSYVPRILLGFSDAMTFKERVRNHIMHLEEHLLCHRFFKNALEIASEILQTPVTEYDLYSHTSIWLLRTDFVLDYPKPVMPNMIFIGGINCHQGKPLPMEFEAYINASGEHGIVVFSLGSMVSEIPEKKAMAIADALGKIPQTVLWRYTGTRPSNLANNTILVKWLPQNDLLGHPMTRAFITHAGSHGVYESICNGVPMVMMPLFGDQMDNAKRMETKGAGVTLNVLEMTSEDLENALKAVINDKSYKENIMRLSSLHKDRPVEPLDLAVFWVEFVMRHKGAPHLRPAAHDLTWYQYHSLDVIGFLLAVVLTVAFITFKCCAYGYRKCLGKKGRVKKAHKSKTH", "test": "Ataluren glucuronidation kinetics, recombinant human UGT1A9", "format": "in vitro ADME", "settings": "for K m / K m, u / V max: mean ± SE; for K m / K m, u / V max / fraction unbound at 15 min: n = 3; for microsomal CLint / fraction unbound at 15 min: human; for microsomal CLint: read-out: CLint,u,UGT; for fraction unbound at 15 min: recombinant human UGT1A9 incubation mixture, mean ± SD, read-out: fu,inc", "protocol": "Ataluren at 0.5, 2.5, 12.5, 25, 50, 100, 200, and 400 µmol/L, was incubated (n = 3) at 37°C with recombinant human UGT1A9 and with pooled microsomes from human liver, kidney, and intestine (0.025 mg protein/mL, preactivated with alamethicin at 20 µg/mL) in Tris‐HCl buffer (0.1 mol/L, pH 7.5), in the presence of 1 mmol/L EDTA, 5 mmol/L MgCl2, with or without 0.5%, 1%, or 2% BSA. The incubation (100 µL final volume with 0.5% DMSO) was started by adding an equal volume of UDPGA (5 mmol/L) in Tris‐HCl buffer (0.1 mol/L, pH 7.5). After 30 minutes incubation, the incubation mixtures were combined with 0.3 mL of an internal standard solution in acetonitrile with 1% formic acid, followed by membrane plate filtration. The filtrates were used for LC‐MS/MS analysis to quantify the formation of ataluren‐O‐1β‐acyl glucuronide. Detailed LC‐MS/MS conditions are summarized in LC‐MS/MS Analysis section. Ataluren acyl glucuronide formation rate after 30 minutes incubation was calculated using the amount of metabolite formed (pmol) divided by the protein amount in the incubation sample (0.0025 mg) and the incubation time (30 minutes). Ataluren glucuronidation kinetic parameters were determined with and without adjusting BSA binding by nonlinear regression (GraphPad Prism, 5version 5.04, GraphPad Software, Inc.) using Michaelis‐Menten equation which was the best fit compared with other models. The intrinsic clearance was calculated as CLint = Vmax/Km. In order to compare unbound intrinsic clearance by glucuronidation (CLint,u,UGT) in different tissues, CLint,u,UGT was expressed per gram of tissue by correcting the values for the microsomal protein yield, resulting in scaled CLint,u,UGT. Microsomal protein yields of 40.0, 12.8, and 20.6 mg protein/g tissue were used for hepatic, renal, and intestinal data, respectively. ^26\nThe high‐throughput membrane ultrafiltration method ^27 was used to determine the fraction unbound in the incubation (n = 3). Incubation mixtures and procedures were essentially the same as the above except that UDPGA (5 mmol/L) was replaced with Tris‐HCl buffer (0.1 mol/L, pH 7.5). After 15 minutes incubation, aliquot was transferred to a Millipore Multiscreen Ultracel‐10 filter plate (10 kDa molecular mass cut off; EMD Millipore). The plate was centrifuged at 37°C and 3710 g. After 30 minutes centrifugation, aliquots of ultrafiltrates and incubation mixtures prior to ultrafiltration were quenched with an internal standard solution in acetonitrile, followed by membrane plate filtration. The filtrates were used for LC‐MS/MS analysis to quantify the concentration of ataluren. The same LC‐MS/MS conditions described above are summarized in LC‐MS/MS Analysis section. The free fraction = Cu/Cm, where Cu is the concentration of ataluren in the ultrafiltrate and Cm is the concentration of ataluren in the incubation system before centrifugation. Unbound Km (Km, u) was recalculated by applying Michaelis‐Menten equation using free ataluren concentrations after correcting BSA binding at each ataluren and BSA concentration level.\nQuantification of ataluren‐O‐1β‐acyl glucuronide formation was conducted on an Accela pump and a PAL autosampler equipped with a TSQ Quantum Ultra mass spectrometer (Thermo Fisher Scientific). A Waters Acquity BEH column (C18, 1.7 µm, 50 × 2.1 mm; Waters Cooperation) was used and maintained at 50°C. The mobile phases were 0.1% formic acid in water (A) and acetonitrile (B). The flow rate was 0.6 mL/min and gradient program was as follows: linear gradient from 0% B to 95% B in 0.5 minutes and hold isocratic at 95% B for 1 minute; linear gradient from 95% B to 0% B in 0.1 minutes and hold isocratic at 0% B for 0.4 minutes. TSQ Quantum Ultra mass spectrometer was equipped with a heated electrospray ionization source operated in negative‐ion mode with a vaporizer temperature of 350°C, capillary temperature of 380°C, and spray voltage of 3 kV. […]", "note": "Read-outs that look alike come from different tables or passages of the source."}
{"compound": "O=C(O)c1cccc(-c2noc(-c3ccccc3F)n2)c1", "note": "[ataluren, Ataluren]", "values": [{"measurement": "K m", "setting": "UGT1A9, 0% BSA", "value": "4.76 ± 0.934", "unit": "µM"}, {"measurement": "K m, u", "setting": "UGT1A9, 0% BSA", "value": "4.76 ± 0.934", "unit": "µM"}, {"measurement": "V max", "setting": "UGT1A9, 0% BSA", "value": "1058 ± 31.8", "unit": "pmol/min/mg"}, {"measurement": "K m", "setting": "UGT1A9, 0.5% BSA", "value": "26.4 ± 2.80", "unit": "µM"}, {"measurement": "K m, u", "setting": "UGT1A9, 0.5% BSA", "value": "2.71 ± 0.309", "unit": "µM"}, {"measurement": "V max", "setting": "UGT1A9, 0.5% BSA", "value": "752 ± 20.3", "unit": "pmol/min/mg"}, {"measurement": "K m", "setting": "UGT1A9, 1% BSA", "value": "45.6 ± 3.83", "unit": "µM"}, {"measurement": "K m, u", "setting": "UGT1A9, 1% BSA", "value": "2.52 ± 0.243", "unit": "µM"}, {"measurement": "V max", "setting": "UGT1A9, 1% BSA", "value": "842 ± 23.0", "unit": "pmol/min/mg"}, {"measurement": "K m", "setting": "UGT1A9, 2% BSA", "value": "83.4 ± 15.3", "unit": "µM"}, {"measurement": "K m, u", "setting": "UGT1A9, 2% BSA", "value": "2.46 ± 0.498", "unit": "µM"}, {"measurement": "V max", "setting": "UGT1A9, 2% BSA", "value": "847 ± 56.2", "unit": "pmol/min/mg"}, {"measurement": "microsomal CLint", "setting": "recombinant human UGT1A9, pH 7.5, UGT1A9, 0% BSA", "value": 222, "unit": "µL/min/mg"}, {"measurement": "microsomal CLint", "setting": "recombinant human UGT1A9, pH 7.5, UGT1A9, 0.5% BSA", "value": 277, "unit": "µL/min/mg"}, {"measurement": "microsomal CLint", "setting": "recombinant human UGT1A9, pH 7.5, UGT1A9, 1% BSA", "value": 334, "unit": "µL/min/mg"}, {"measurement": "microsomal CLint", "setting": "recombinant human UGT1A9, pH 7.5, UGT1A9, 2% BSA", "value": 344, "unit": "µL/min/mg"}, {"measurement": "fraction unbound at 15 min", "setting": "pH 7.5, UGT1A9, 0% BSA", "value": "1 ± 0.5"}, {"measurement": "fraction unbound at 15 min", "setting": "pH 7.5, UGT1A9, 0.5% BSA", "value": "0.116 ± 0.019"}, {"measurement": "fraction unbound at 15 min", "setting": "pH 7.5, UGT1A9, 1% BSA", "value": "0.064 ± 0.007"}, {"measurement": "fraction unbound at 15 min", "setting": "pH 7.5, UGT1A9, 2% BSA", "value": "0.035 ± 0.003"}, {"measurement": "maximal effect of BSA on CLint,u (increase)", "setting": "recombinant UGT1A9, with vs without BSA", "value": "approximately 1.6 fold"}]}
